Laboratory results taken from US7375243B2, “Method for preparation of amino acid chelate” (MD Bioalpha Co., Ltd., priority 2002, dated 2008).

Key:
Fe-starved rats = assay: Effect of Fe-supplying agents on the absorption of Fe in Fe-starved rats
Procedure: 3-week old Sprague-Dawley male rats (Daehan Biolink Co., Ltd., Korea) were employed for the present experiment after application of an elementary diet for one week. These rats were divided into a normal group and an experimental group. The diet for the normal group (“normal diet”) was prepared based upon AIN-76 diet composition, whereas the diet for the experimental group (“Fe-free diet” or “experimental diet”) was prepared by replacing a mineral mixture in the normal diet composition with a Fe-deficient mineral mixture. […] These Fe-supplying agents were orally administered to rats along with the experimental diet for one week before the rats were sacrificed.
The concentration of Fe-supplying agent for the oral administration was 10 times the recommended amount for adult males. 3× distilled water was used for preparation of the experimental diet and was fed to rats for maintenance. The compositions of diets administered to the normal group and experimental group, respectively, are described in TABLE 14 below.
Rats were adapted to a cage for one week before the start of the experiment, and their feces were collected for a final 3 days. On the final day, the abdomen was cut open under ether anesthesia, then blood was harvested from abdominal aorta, and major organs such as liver, kidney, spleen, etc. were extracted. […] Each organ was trimmed and washed with normal saline, then moisture on the surface thereof was removed to measure the weight and length.
CBC (Complete Blood Count: Red blood cell; RBC, white blood cell; WBC, Hematocrits; HCT, Hemoglobin; Hb) was measured from the anticoagulated blood, and IRON and TIBC Total Iron Binding Capacity) were measured from the blood serum. CBC was measured by an automatic analyzer (ADVIA 120, Bayer, U.S.A). As reagents, Isoton III (Beckman Coulter, U.S.A), Coulter clenz (Beckman Coulter), Lyse S III (Beckman Coulter), 4% sodium hypochloride-solution (Beckman Coulter) and 4C-plus (Beckman Coulter), Scatter Pak (Beckman Coulter) were used.
All data obtained in the present experiment were expressed with the mean standard error using the SAS program. T-test in each group was carried out at a range of P<0.05 by Duncan's multiple comparison test.

calcium-starved rats = assay: Test of the degree of absorption of Ca-supplying agents in calcium-starved rats; conditions: for Length of fibula / Weight of fibula: Ca-starved rats, Ca-supplying agent orally for one week with Ca-free diet
Procedure: 3-week old Sprague-Dawley male rats (Daehan Biolink Co., Ltd., Korea) were employed for the present experiment after adjustment to an elementary diet These rats were divided into a normal group and an experimental group. The diet for the normal group (“normal diet”) was prepared based upon AIN-76 diet composition, whereas the diet for the experimental group (“Ca-flee diet” or “experimental diet”) was prepared by replacing a mineral mixture in the normal diet composition with a Ca deficient mineral mixture. […] These Ca-supplying agents were orally administered to each group along with the Ca-free diet for one week before the rats were sacrificed.
The concentration of Ca-supplying agent in the oral administration was ⅓ of the concentration of calcium in AIN-76 mineral mixture, which corresponds to 10 times the recommended amount for adult males. 3× distilled water was used for preparation of the experimental diet and was also was fed to rats for maintenance. The compositions of diets administered to the normal group and experimental groups, respectively, are described in TABLE 8 as below.
The abdomens of the rats were cut open under ether anesthesia, then blood was harvested from abdominal aorta, and major organs such as liver, kidney, spleen, etc. were […], followed by the extraction of fibula. The blood was centrifuged at 3000 rpm for 10 minutes to separate serum. Each organ and bone was trimmed and washed with normal saline and moisture on the surface thereof was removed to measure the weight and length thereof.
The content of calcium in serum and urine was measured by Calcium Reagent Arsenazo III kit (Sigma Corp., U.S.A). In order to measure the content of calcium in feces, the feces (sample) was put in a Pyrex beaker and the weight thereof was measured to 0.1 mg unit, then 5 ml of HNO3 and 2 ml of H2O2 were added and the beaker was left uncovered on a hot plate. The acid-digested sample was cooled and 2 ml of H2O2 was added thereto, followed by heating. Next, the acid was sufficiently volatilized to make the concentration of HNO3 to 1-5%, followed by the analysis with ICP-AES (inductively Coupled Plasma Atomic Emission Spectrometer). The condition for analysis is given below. • Model: Jobin Yvon 138 Ultrace • Source: Argon plasma (6000 K) • Spectral range: 160-800 nm • Resolution: 0.005 nm (UV) • Detection limit: 1×ppb˜100×ppb • Wavelength for analysis: 393.366 nm 3. Effect On Weight of Major Organs

[1] = Stability of amino acid chelate on storage in aqueous solutions; assay type: physicochemical; conditions: distilled water and buffer at pH 3, 5, 7, 9, commercial beverages, cosmetics, ALGI; stored at 4, 25 and 50° C. for 3 months
Procedure: The following experiment was carried out to ascertain the stability of amino acid chelate compound, obtained in EXAMPLE 1, on its storage in an aqueous solution for a long time.
• 1) preparation of samples by adding the above amino acid chelate compound into distilled water adjusted to pH 3, 5, 7 and 9, respectively. • 2) preparation of samples by adding the above amino acid chelate compound into solutions adjusted to pH 3, 5, 7 and 9 using buffer, respectively. • 3) preparation of samples by adding the above amino acid chelate compound into selected commercially available beverages (MIEROFIBER® (Hyundai Pharm., Korea), BACCHUS® (Donga Pharm., Korea) and orange juice (HaeTae Beverage Corp., Korea)), respectively. • 4) preparation of samples by adding the above amino acid chelate compound into selected commercially available cosmetics (ISA KNOX® (LG Chemical Corp., Korea), MAMONDE® (AmorePacific Corp., Korea)) • 5) preparation of samples by adding the above amino acid chelate compound into ALGI® (GG Tech. Co. Ltd., Korea) as a plant growth-accelerating agent
The above samples were stored at 4, 25 and 50° C., respectively, and then tested for any precipitation or change in pH. […]

[2] = Fe-starved rats, oral for one week

Concentration of calcium in serum (calcium-starved rats; rat, in vivo, po) [mg/dL] | Concentration of calcium in urine (calcium-starved rats; rat, in vivo, po) [mg/dL] | Kidney weight (calcium-starved rats; rat, in vivo, po) [mg/BW] | Spleen weight (calcium-starved rats; rat, in vivo, po) [mg/BW] | Molecule | RBC (Fe-starved rats; [2]) | TIBC (total iron binding capacity) in serum (Fe-starved rats; [2]) [µg/dL] | WBC (Fe-starved rats; [2]) | Length of fibula (calcium-starved rats) [mm] | Weight of fibula (calcium-starved rats) [g] | also measured
 |  |  |  | Heme iron | 7.01 ± 0.16 ×10^6/mm^3 | 824.63 ± 11.60 | 6.12 ± 0.37 ×10^3/mm^3 |  |  | HCT (Fe-starved rats; [2]): 36.11 ± 0.89%; TS (transferrin saturation) (Fe-starved rats; [2]): 17.07%; IRON in serum (Fe-starved rats; rat, in vivo, po): 140.8. ± 25.55 μg/dl; Kidney weight (Fe-starved rats; rat, in vivo, po): 7.20 ± 0.13 mg/BW; Spleen weight (Fe-starved rats; rat, in vivo, po): 2.78 ± 0.15 mg/BW
 |  |  |  | iron-aspartic acid chelate [Fe-Asp] | 7.32 ± 0.35 ×10^6/mm^3 | 735.44 ± 9.30 | 6.02 ± 0.46 ×10^3/mm^3 |  |  | 
9.13 ± 0.21 | 0.22 ± 0.01 | 8.60 ± 0.40 | 3.00 ± 0.00 | O=C([O-])[O-].[Ca+2] [CaCO3] |  |  |  | 30.03 ± 1.10 | 0.332 ± 0.033 | Concentration of serum-calcium in blood collected from eyeball (calcium-starved rats; rat, in vivo, po): 8.52 ± 0.27 mg/dL
 |  |  |  | Seaweed Calcium-Glutamic Acid Chelate [EXAMPLE 1] |  |  |  |  |  | precipitation or change in pH [1]: no precipitation or remarkable change in pH
 |  |  |  | calcium-aspartic acid chelate [Asp-Ca] |  |  |  | 30.88 ± 1.87 | 0.327 ± 0.031 | 
10.44 ± 0.07 | 0.32 ± 0.02 | 8.20 ± 0.20 | 3.00 ± 0.32 | seaweed calcium [SW-Ca] |  |  |  |  |  | 
